Laboratory results as given in US20070099915A1, “INHIBITORS OF THE HIV INTEGRASE ENZYME” (PFIZER INC., priority 2005, published 2007).
Where two headings read alike, the source gives them in different places.

Legend:
[1] = tested on: HIV-1 RF virus in CEM-SS cells; test: HIV-1 cell protection assay (XTT dye reduction); format: cell-based
Description: Six days later, 50 μl of XTT solution (1 mg/ml XTT tetrazolium and 20 nM phenazine methosulfate) were added to the wells and the plates were reincubated for four hours. Viability, as determined by the amount of XTT formazan produced, was quantified spectrophotometrically by absorbance at 450 nm.
Data from CPE assays were expressed as the percent of formazan produced in compound-treated cells compared to formazan produced in wells of uninfected, compound-free cells. […] The 50% cytotoxicity concentration (CC50) was calculated as the concentration of compound that decreased the percentage of formazan produced in uninfected, compound-treated cells to 50% of that produced in uninfected, compound-free cells. The therapeutic index was calculated by dividing the cytotoxicity (CC50) by the antiviral activity (EC50).

[2] = molecular target: T1, Full-length wild type HIV-1 integrase (SF1) (Human immunodeficiency virus type 1 group M subtype B, UniProt P04585); test: Integrase strand-transfer scintillation proximity assay; format: biochemical
T1 construct: made in house; host or cells: E. coli BL21 (DE3)
From the text: The annealed product represents preprocessed viral ds-DNA derived from the LTR U5 sequence of the viral genome. A ds-DNA control to test for non-specific interactions was made using a 3′ di-deoxy derivative of oligonucleotide #1 annealed to oligonucleotide #2. The CA overhang at the 5′ end of the non-biotinylated strand of the ds-DNA was created artificially by using a complimentary DNA oligonucleotide shortened by 2 base pairs. This configuration eliminates the requisite 3′ processing step of the integrase enzyme prior to the strand-transfer mechanism.
The annealed product had overhanging 3′ ends of poly(dA). […] The radiolabeled product was purified using a NENSORB cartridge and stored in stabilized aqueous solution (PerkinElmer).
Reagents: Streptavidin-coated polyvinyltoluene (PVT) SPA beads were purchased from Amersham Biosciences (Piscataway, N.J.). Cesium chloride was purchased from Shelton Scientific, Inc. (Shelton, Conn.). White, polystyrene, flat-bottom, non-binding surface, 96-well plates were purchased from Corning. All other buffer components were purchased from Sigma (St. Louis, Mo.) unless otherwise indicated.
Enzyme Construction: Full-length wild type HIV-1 integrase (SF1) sequence (amino acids 1-289) was constructed in a pET24a vector (Novagen, Madison, Wis.).
Enzyme Purification: Full length wild-type HIV Integrase was expressed in E. coli BL21 (DE3) cells and induced with 1 mM isopropyl-1 thio-β-D-galactopyranoside (IPTG) when cells reached an optical density between 0.8-1.0 at 600 nm. Cells were lysed by microfluidation in 50 mM HEPES pH 7.0, 75 mM NaCl, 5 mM DTT, 1 mM 4-(2-Aminoethyl)benzenesulfonylfluoride HCl (AEBSF). Lysate was then centrifuged 20 minutes at 11 k rpm in GSA rotor in Sorvall RC-5B at 4° C. Supernant was discarded and pellet resuspended in 50 mM HEPES pH 7.0, 750 mM NaCl, 5 mM DTT, 1 mM AEBSF and homogenized in a 40 mL Dounce homogenizer for 20 minutes on ice. Homogenate was then centrifuged 20 minutes at 11 k rpm in SS34 rotor in Sorvall RC-5B at 4° C. Supernant was discarded and pellet resuspended in 50 mM HEPES pH 7.0, 750 mM NaCl, 25 mM CHAPS, 5 mM DTT, 1 mM AEBSF. Preparation was then centrifuged 20 minutes at 11 k rpm in SS34 rotor in Sorvall RC-5B at 4° C.
Supernant was then diluted 1:1 with 50 mM HEPES pH 7.0, 25 mM CHAPS, 1 mM DTT, 1 mM AEBSF and loaded onto a Q-Sepharose column pre-equilibrated with 50 mM HEPES, pH 7.0, 375 mM NaCl, 25 mM CHAPS, 1 mM DTT, 1 mM AEBSF. The flow through peak was collected and NaCl diluted to 0.1 M with 50 mM HEPES pH 7.0, 25 mM CHAPS, 1 mM DTT, 0.5 mM AEBSF and loaded onto a SP-Sepharose column pre-equilibrated with 50 mM HEPES pH 7.0, 100 mM NaCl, 25 mM CHAPS, 1 mM DTT, 0.5 mM AEBSF. After washing the column with the equilibration buffer, a 100 to 400 mM NaCl gradient was run. The eluted integrase was concentrated and run on a S-300 gel diffusion column using 50 mM HEPES pH 7.0, 500 mM NaCl, 25 mM CHAPS, 1 mM DTT, 0.5 mM AEBSF. […] All columns were run in a 4° C. cold room.
Viral DNA Bead Preparation: Streptavidin-coated SPA beads were suspended to 20 mg/mL in 25 mM 3-morpholinopropanesulfonic acid (MOPS) (pH 7.2) and 1.0% NaN3. Biotinylated viral DNA was bound to the hydrated SPA beads in a batch process by combining […] of ds-DNA to 1 mg of suspended SPA beads (10 μL of 50 μM viral DNA to 1 mL of 20 mg/mL SPA beads). The mixture was incubated at 22° C. for a minimum of 20 min. with occasional mixing followed by centrifugation at 2500 rpm for 10 min.

[3] = strand-transfer SPA, 246 nM integrase, 50 nM host DNA, 37° C., 50 min, read-out: IC50
[4] = Human immunodeficiency virus 1, 144 h, RF strain of HIV-1, CEM-SS cells, XTT read-out after six days, read-out: EC50
[5] = Human immunodeficiency virus 1, CEM-SS, 144 h

| Compound | IC50 [2, 3] | EC50 [1, 4] | EC50 [1, 5] | further results |
| --- | --- | --- | --- | --- |
| 3-(4-fluorobenzyl)-7-hydroxy-1-[(2-propoxyethoxy)methyl]-3,7-dihydro-6H-pyrrolo[23-c]-17-naphthyridin-6-one [Example 89] | 10 nM | – | – | EC50 ([1]; RF strain of HIV-1, CEM-SS cells, XTT read-out after six days, read-out: EC50): 1 nM |
| O=C1c2ncc3c(c(COCC(O)CO)cn3Cc3ccc(F)cc3)c2CCN1O (stereo in doubt) [Example 24, 1-({[(2S)-2,3-dihydroxypropyl]oxy}methyl)-3-(4-fluorobenzyl)-7-hydroxy-3,7,8,9-tetrahydro-6H-pyrrolo[2 3-c]-1,7-naphthyridin-6-one] | 14 nM | 4 nM | – | – |
| CCCCC1Cc2c(ncc3c2ccn3Cc2ccc(F)cc2)C(=O)N1O (stereo not shown) [Example 1, 8-butyl-3-(4-fluorobenzyl)-7-hydroxy-3,7,8,9-tetrahydro-6H-pyrrolo[2,3-c]-1,7-naphthyridin-6-one] | – | 460 nM | – | – |
| C[C@H](O)CNCc1cn(Cc2ccc(F)cc2)c2cnc3c(=O)n(O)ccc3c12 [Example 2, 3-(4-fluorobenzyl)-7-hydroxy-1-({[(2S)-2-hydroxypropyl]amino}methyl)-3,7-dihydro-6H-pyrrolo[2,3-c]-1,7-naphthyridin-6-one] | – | 60.9 nM | – | – |
| CCN(C)Cc1cn(Cc2ccc(F)cc2)c2cnc3c(=O)n(O)ccc3c12 [Example 3, 1-{[ethyl(methyl)amino]methyl}-3-(4-fluorobenzyl)-7-hydroxy-3,7-dihydro-6H-pyrrolo[2,3-c]-1,7-naphthyridin-6-one] | – | 2.5 nM | – | – |
| CC(CN(C)C)NCc1cn(Cc2ccc(F)cc2)c2cnc3c(=O)n(O)ccc3c12 (stereo not shown) [Example 4, 1-({[2-(dimethylamino)-1-methylethyl]amino}methyl)-3-(4-fluorobenzyl)-7-hydroxy-3,7-dihydro-6H-pyrrolo[2,3-c]-1,7-naphthyridin-6-one] | – | 51 nM | – | – |
| O=c1c2ncc3c(c(CN4CCC(CO)CC4)cn3Cc3ccc(F)cc3)c2ccn1O [Example 5, 3-(4-fluorobenzyl)-7-hydroxy-1-{[4-(hydroxymethyl)piperidin-1-yl]methyl}-3,7-dihydro-6H-pyrrolo[2,3-c]-1,7-naphthyridin-6-one] | – | 12 nM | – | – |
| O=c1c2ncc3c(c(CN4CCCC4)cn3Cc3ccc(F)cc3)c2ccn1O [Example 6, 3-(4-fluorobenzyl)-7-hydroxy-1-(pyrrolidin-1-ylmethyl)-3,7-dihydro-6H-pyrrolo[2,3-c]-1,7-naphthyridin-6-one] | – | 5.3 nM | – | – |
| CN(C)C(=O)c1cccc(-c2cn(Cc3ccc(F)cc3)c3cnc4c(=O)n(O)ccc4c23)c1 [Example 8, 3-[3-(4-fluorobenzyl)-7-hydroxy-6-oxo-6,7-dihydro-3H-pyrrolo[2,3-c]-1,7-naphthyridin-1-yl]-N,N-dimethylbenzamide] | 37 nM | 5 nM | – | – |
| O=c1c2ncc3c(c(-c4ccccn4)cn3Cc3ccc(F)cc3)c2ccn1O [Example 9, 3-(4-fluorobenzyl)-7-hydroxy-1-pyridin-2-yl-3,7-dihydro-6H-pyrrolo[2,3-c]-1,7-naphthyridin-6-one] | 29 nM | 2 nM | – | – |
| O=C1c2ncc3c(ccn3Cc3ccc(F)cc3)c2C=CCN1O [Example 10, 3-(4-fluorobenzyl)-7-hydroxy-7,8-dihydropyrrolo[3′,2′:4,5]pyrido[2,3-c]azepin-6(3H)-one] | – | 0.59 nM | – | IC50 [2]: 17 nM |
| CN(C)Cc1cn(Cc2ccc(F)cc2)c2cnc3c(c12)CCN(O)C3=O [Example 12, 1-[(dimethylamino)methyl]-3-(4-fluorobenzyl)-7-hydroxy-3,7,8,9-tetrahydro-6H-pyrrolo[2,3-c]-1,7-naphthyridin-6-one] | – | – | 13 nM | – |
| O=C1c2ncc3c(c(S(=O)(=O)N4CCCC4)cn3Cc3ccc(F)cc3)c2CCN1O [Example 13, 3-(4-fluorobenzyl)-7-hydroxyl(pyrrolidin-1-ylsulfonyl)-3,7,8,9-tetrahydro-6H-pyrrolo[2 3-c]-1,7-naphthyridin-6-one] | – | – | 3 nM | – |
| O=C1c2ncc3c(c(C(=O)N4CCCC4)cn3Cc3ccc(F)cc3)c2CCN1O [Example 14, 3-(4-fluorobenzyl)-7-hydroxy-1-(pyrrolidin-1-ylcarbonyl)-3,7,8,9-tetrahydro-6H-pyrrolo[2,3-c]-1,7-naphthyridin-6-one] | 16 nM | – | 7 nM | – |
| COC1CCN(C(=O)c2cn(Cc3ccc(F)cc3)c3cnc4c(c23)CCN(O)C4=O)CC1 [Example 15, 3-(4-fluorobenzyl)-7-hydroxy-1-[(4-methoxypiperidin-1-yl)carbonyl]-3,7,8,9-tetrahydro-6H-pyrrolo[2,3-c]-1,7-naphthyridin-6-one] | 14 nM | – | 28 nM | – |
| CN1CCN(C(=O)c2cn(Cc3ccc(F)cc3)c3cnc4c(c23)CCN(O)C4=O)CC1 [Example 17, 3-(4-fluorobenzyl)-7-hydroxy-1-[(4-methylpiperazin-1-yl)carbonyl]-3,7,8,9-tetrahydro-6H-pyrrolo[2,3-c]-1,7-naphthyridin-6-one] | 17 nM | – | 150 nM | – |
| COC[C@H]1CCCN1C(=O)c1cn(Cc2ccc(F)cc2)c2cnc3c(c12)CCN(O)C3=O [Example 19, 3-(4-fluorobenzyl)-7-hydroxy-1-{[(2R)-2-(methoxymethyl)pyrrolidin-1-yl]carbonyl}-3,7,8,9-tetrahydro-6H-pyrrolo[2,3-c]-1,7-naphthyridin-6-one] | 36 nM | – | 4.5 nM | – |
| O=C1c2ncc3c(c(CN4CCC(F)(F)C4)cn3Cc3ccc(F)cc3)c2CCN1O [Example 37, 1-[(3,3-difluoropyrrolidin-1-yl)methyl]-3-(4-fluorobenzyl)-7-hydroxy-3,7,8,9-tetrahydro-6H-pyrrolo[2,3-c]-1,7-naphthyridin-6-one] | – | – | 1.5 nM | – |
| O=C1c2ncc3c(c(CN4CCCCC4)cn3Cc3ccc(F)cc3)c2CCN1O [Example 38, 3-(4-fluorobenzyl)-7-hydroxy-1-(piperidin-1-ylmethyl)-3,7,8,9-tetrahydro-6H-pyrrolo[2,3-c]-1,7-naphthyridin-6-one] | – | – | 5.4 nM | – |
| COCCN(C)Cc1cn(Cc2ccc(F)cc2)c2cnc3c(c12)CCN(O)C3=O [Example 77, 3-(4-fluorobenzyl)-7-hydroxy-1-{[(2-methoxyethyl)(methyl)amino]methyl}-3,7,8,9-tetrahydro-6H-pyrrolo[2,3-c]-1,7-naphthyridin-6-one] | – | – | 2 nM | – |
| O=C1c2ncc3[nH]ccc3c2CCN1O [Example 83, 7-hydroxy-3,7,8,9-tetrahydro-6H-pyrrolo[2,3-c]-1,7-naphthyridin-6-one] | – | 14 nM | – | – |
| N#Cc1cc(F)ccc1Cn1ccc2c3c(ncc21)C(=O)N(O)CC3 [Example 91, 5-fluoro-2-[(7-hydroxy-6-oxo-6,7,8,9-tetrahydro-3H-pyrrolo[2,3-c]-1,7-naphthyridin-3-yl)methyl]benzonitrile] | – | – | 2 nM | – |
